Several values for one entry are separate records, joined by “and”; a condition that tells them apart may be missing. Equal values may be shown once.
Tested on: HL60 (human promyelocytic leukemia) cells
Experiment: LMA-FlexMAP bead-based gene expression signature analysis of total RNA from HL60 cells treated with tretinoin or DMSO (ninety transcripts); on FlexMap signal, transcript NM 000875 (LUA#55): test concentration or dose not given here
[1] = Experiment 2, HL60 cells, Tretinoin-treated, replicate columns
[2] = Table 6B Experiment 1, tretinoin-treated HL60 samples, one column per replicate

In the case of `CC1=C(/C=C/C(C)=C/C=C/C(C)=C/C(=O)O)C(C)(C)CCC1` [tretinoin, all-trans-retinoic acid], the “FlexMap signal, transcript NM_000698 (LUA#14)” value [1] was 1787 and 1685 and 64.5 and 1902 and 539 and 1934.5 and 1914.5 and 1773 and 1769 and 1871.5, the “FlexMap signal, transcript NM_000875 (LUA#55)” value [1] was 89 and 104 and 28.5 and 81 and 36 and 79 and 80 and 85 and 90 and 87.5 and the “FlexMap signal, transcript NM_000962 (LUA#7)” value [1] was 873 and 822.5 and 65 and 900 and 253 and 845 and 904.5 and 846 (2×) and 930. For the same compound, the “FlexMap signal, transcript NM_001974 (LUA#11)” value [1] was 494 and 340.5 and 30 and 516.5 and 92.5 and 533 and 515 and 493 and 470 and 539, the “FlexMap signal, transcript NM_002358 (LUA#53)” value [1] was 109 (2×) and 94 and 33.5 and 103 (2×) and 39 and 96 and 97 and 119 and the “FlexMap signal, transcript NM_003825 (LUA#8)” value [1] was 721 and 689.5 and 102 and 772 and 220 and 800 and 733 and 738 and 727 and 764. The “FlexMap signal, transcript NM_004514 (LUA#46)” value [1] was 399 and 424.5 and 25 and 469 and 99 and 428 and 445 and 422 and 420.5 and 460, the “FlexMap signal, transcript NM_004631 (LUA#52)” value [1] was 399 (2×) and 397 and 38.5 and 391 and 97 and 396 and 399.5 and 401.5 and 424 and the “FlexMap signal, transcript NM_004782 (LUA#4)” value [1] was 1036.5 and 932 and 45 and 979.5 and 253 and 1005 and 1030 and 914 and 929 and 1044. The “FlexMap signal, transcript NM_005736 (LUA#1)” value [1] was 384.5 and 298.5 and 36.5 and 390 and 90.5 and 408 and 411 and 385 and 392 and 414.5, the “FlexMap signal, transcript NM_006457 (LUA#13)” value [1] was 131 (2×) and 121 and 43 and 115.5 (2×) and 65 and 118 and 120 and 117 and the “FlexMap signal, transcript NM_006773 (LUA#47)” value [1] was 284 and 354.5 and 28 and 270 and 68 and 273 and 283 and 272 and 279 and 305. For the same compound, the “FlexMap signal, transcript NM_006948 (LUA#51)” value [1] was 980 and 887 and 51 and 974 and 248 and 1014 and 1006 and 963.5 and 958.5 and 1024.5, the “FlexMap signal, transcript NM_007331 (LUA#50)” value [1] was 102 and 115 (2×) and 24 and 47 and 95.5 and 96 and 97.5 and 94.5 and 111.5 and the “FlexMap signal, transcript NM_013402 (LUA#54)” value [1] was 89 and 83 and 30 and 82 and 46 and 90.5 and 95.5 and 85 and 84.5 and 97. For the same compound, the “FlexMap signal, transcript NM_014288 (LUA#48)” value [1] was 63.5 and 55 and 22 and 52 and 33 and 60 and 57 (3×) and 65, the “FlexMap signal, transcript NM_014962 (LUA#5)” value [1] was 691 and 618 and 39 and 595.5 and 160 and 670.5 and 705 and 677.5 and 678 and 710 and the “FlexMap signal, transcript NM_016061 (LUA#9)” value [1] was 450 and 440 and 48 and 458 and 121 and 470.5 and 464 and 468 and 459 and 503.5. For the same compound, the “FlexMap signal, transcript NM_017440 (LUA#49)” value [1] was 91 and 29 and 88 and 42 and 78 and 97 and 87.5 and 84 and 86.5, the “FlexMap signal, transcript NM_018217 (LUA#3)” value [1] was 980 and 922 and 48 and 935 and 258 and 992 and 1053.5 and 947 and 966 and 1022.5 and the “FlexMap signal, transcript NM_032571 (LUA#15)” value [1] was 228 (2×) and 244 (2×) and 22.5 and 58.5 and 234 and 208 and 205 and 239. For the same compound, the “FlexMap signal, transcript NM_173823 (LUA#6)” value [1] was 760 and 592 and 36 and 736 and 182.5 and 758 and 734.5 and 658.5 and 681 and 816, the “FlexMap signal of transcript NM_014288 (LUA#48)” value (Experiment 3, tretinoin-treated samples, one column per sample) was 45 and 48 and 30 and 25 and 30.5 and 39 and 43 and 33 and the “NM_000070 (FlexMap ID LUA#2) signal” value [2] was 329.5 and 386 and 269.5 and 370 and 104.5 and 354 and 372 and 159 and 336 and 318. The “NM_000153 (FlexMap ID LUA#10) signal” value [2] was 357.5 and 432 and 324 and 419.5 and 120 and 384 and 408 and 170 and 374 and 377.5, the “NM_000632 (FlexMap ID LUA#12) signal” value [2] was 323.5 and 222 and 292 and 78 and 307 and 277 and 114 and 275.5 and 251 and the “NM_000698 (FlexMap ID LUA#14) signal” value [2] was 1562 and 1779 and 1332.5 and 1743 and 503 and 1688 and 1686.5 and 787 and 1606 and 1552.5. For the same compound, the “NM_000875 (FlexMap ID LUA#55) signal” value [2] was 63 and 68 and 53 and 62 (2×) and 36 and 65 and 48 and 74 and 54, the “NM_000962 (FlexMap ID LUA#7) signal” value [2] was 754 and 894 and 663 and 823 and 294 and 793.5 and 807 and 398 and 772 and 764 and the “NM_001974 (FlexMap ID LUA#11) signal” value [2] was 403 and 466 and 288 and 435.5 and 95 and 414 and 430 and 141 and 420.5 and 396. For the same compound, the “NM_002358 (FlexMap ID LUA#53) signal” value [2] was 99 (2×) and 113 and 72 and 98 (2×) and 53 and 96 and 58 and 85, the “NM_003825 (FlexMap ID LUA#8) signal” value [2] was 557 and 658 and 476.5 and 630.5 and 256 and 580 and 609 and 318 and 584 and 550 and the “NM_004514 (FlexMap ID LUA#46) signal” value [2] was 312.5 and 356 and 262 and 320 and 96 and 306 and 313 and 144.5 and 302 and 286. The “NM_004631 (FlexMap ID LUA#52) signal” value [2] was 304 and 352 and 238 and 334 and 103 and 331 and 310.5 and 135.5 and 326 and 289.5, the “NM_004782 (FlexMap ID LUA#4) signal” value [2] was 790.5 and 907 and 635 and 855 (2×) and 232 and 870 and 812.5 and 341 and 750 and the “NM_005736 (FlexMap ID LUA#1) signal” value [2] was 308 and 336 and 319 and 351 and 89 and 329 and 319.5 and 138.5 and 309 and 279. The “NM_006457 (FlexMap ID LUA#13) signal” value [2] was 144 and 135 (2×) and 113 and 78 and 123 and 136 and 90 and 151.5 and 132, the “NM_006773 (FlexMap ID LUA#47) signal” value [2] was 213 (2×) and 257 and 139 and 56.5 and 216 and 219 and 79.5 and 235 and 174 and the “NM_006948 (FlexMap ID LUA#51) signal” value [2] was 742 and 840.5 and 592.5 and 791.5 and 224 and 773.5 and 795 and 325 and 762 and 716.5. The “NM_007331 (FlexMap ID LUA#50) signal” value [2] was 85.5 and 97 and 70 and 81 and 42 and 96 and 87 and 53 and 91 and 80, the “NM_013402 (FlexMap ID LUA#54) signal” value [2] was 72 (2×) and 71 and 62 and 75 (2×) and 43 and 75.5 and 48.5 and 71.5 and the “NM_014288 (FlexMap ID LUA#48) signal” value [2] was 64 and 62 and 55 and 61 and 45 and 60 (2×) and 56 and 41.5 and 59. For the same compound, the “NM_014962 (FlexMap ID LUA#5) signal” value [2] was 537 and 575.5 and 414.5 and 556 and 171.5 and 552.5 and 567 and 232 and 576.5 and 516.5, the “NM_016061 (FlexMap ID LUA#9) signal” value [2] was 362.5 and 422 and 297 and 401 and 128 and 385 and 382 and 173 and 357.5 and 357 and the “NM_017440 (FlexMap ID LUA#49) signal” value [2] was 59 and 66 and 55 and 68 (2×) and 40 and 67 and 48.5 and 66.5 and 62. For the same compound, the “NM_018217 (FlexMap ID LUA#3) signal” value [2] was 747 and 886 and 659.5 and 824 and 225.5 and 823 and 800 and 343 and 785 and 727, the “NM_032571 (FlexMap ID LUA#15) signal” value [2] was 144 and 188 and 125 and 161 and 60 and 169 and 164.5 and 81 and 172.5 and 146 and the “NM_173823 (FlexMap ID LUA#6) signal” value [2] was 591.5 and 718 and 482.5 and 654 and 186.5 and 675 and 646 and 291 and 604.5 and 573.

Source: patent US20110015080A1, “Solution-based methods for RNA expression profiling” (MASSACHUSETTS INSTITUTE OF TECHNOLOGY, priority 2005, published 2011)
